Source: ChEMBL document CHEMBL4024743, “BACE-1 Inhibitors: From Recent Single-Target Molecules to Multitarget Compounds for Alzheimer's Disease” (J Med Chem, 2018)
Blank lines part the entries; values can stand above or below the compound they belong to.

Tests used:
[1] = molecular target: Glycogen synthase kinase-3 beta (Homo sapiens, UniProt P49841); test: Inhibition of recombinant human GSK3beta using prephosphorylated polypeptide as substrate preincubated for 30 mins followed by addition of kinase-glo stop solution measured after 10 mins by Kinase-Glo luminescence assay
[2] = Oral bioavailability in CD16 mouse at 10 mg/kg; assay type: ADME, organism-based; settings: in vivo
[3] = Drug uptake in CD16 mouse brain at 3 mg/kg, po after 30 mins by LC-MS/MS analysis; assay type: ADME, organism-based; settings: read-out: Drug uptake
Beta-secretase 1 [4] = molecular target: T1, Beta-secretase 1 (Homo sapiens, UniProt P56817); test: Inhibition of human BACE-1 preincubated for 1 hr followed by substrate addition measured after 60 mins by FRET assay
Beta-secretase 1 [5] = molecular target: T1, Beta-secretase 1
Description: Inhibition of BACE-1 (unknown origin) using APP derived polypeptide harboring Lys-Met/Asn-Leu mutation as substrate by FRET assay

Beta-secretase 1 [6] = molecular target: T1, Beta-secretase 1; test: Inhibition of BACE-1 (unknown origin)

T1 sequence (P56817 whole entry): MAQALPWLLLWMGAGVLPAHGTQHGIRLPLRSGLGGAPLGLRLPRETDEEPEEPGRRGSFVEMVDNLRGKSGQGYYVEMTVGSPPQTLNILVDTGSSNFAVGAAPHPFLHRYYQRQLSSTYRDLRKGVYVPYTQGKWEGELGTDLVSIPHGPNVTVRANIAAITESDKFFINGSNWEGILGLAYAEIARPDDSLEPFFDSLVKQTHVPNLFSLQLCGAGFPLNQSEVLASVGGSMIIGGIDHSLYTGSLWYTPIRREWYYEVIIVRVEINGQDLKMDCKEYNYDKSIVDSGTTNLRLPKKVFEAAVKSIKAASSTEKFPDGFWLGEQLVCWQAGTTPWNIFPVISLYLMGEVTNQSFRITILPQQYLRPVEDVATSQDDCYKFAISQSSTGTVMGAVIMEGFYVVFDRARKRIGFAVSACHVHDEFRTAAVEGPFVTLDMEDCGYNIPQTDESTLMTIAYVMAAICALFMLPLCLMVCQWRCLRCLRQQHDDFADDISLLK
Sequence of Glycogen synthase kinase-3 beta (P49841 whole entry): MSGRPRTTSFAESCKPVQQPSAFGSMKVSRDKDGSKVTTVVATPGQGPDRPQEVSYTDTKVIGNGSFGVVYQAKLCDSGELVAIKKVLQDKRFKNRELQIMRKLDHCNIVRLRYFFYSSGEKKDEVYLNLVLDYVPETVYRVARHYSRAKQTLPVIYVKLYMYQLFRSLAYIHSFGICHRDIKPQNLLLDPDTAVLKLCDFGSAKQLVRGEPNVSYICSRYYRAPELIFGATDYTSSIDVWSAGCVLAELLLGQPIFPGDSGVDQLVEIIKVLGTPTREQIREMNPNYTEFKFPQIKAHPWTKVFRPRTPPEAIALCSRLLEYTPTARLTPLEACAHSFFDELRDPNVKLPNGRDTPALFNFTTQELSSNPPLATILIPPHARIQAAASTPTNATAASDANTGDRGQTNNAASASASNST

- IC50 [1]: 14.7 µM
- bioavailability [2]: 66%
- concentration at 0.5 h [3]: 620 nM
Compound: NC1=NC(c2ccc(F)cc2)NC(=O)N1 (stereo not drawn)

- IC50 (Beta-secretase 1 [4]): 1.8 µM
Compound: OC1=C2Nc3ccccc3N=C2OC1c1c[nH]c2ccc(COc3ccccc3)cc12 (stereo not drawn)

- IC50 (Beta-secretase 1 [5]): 0.115 µM
Compound: CC#Cc1cncc(-c2ccc3c(c2)[C@]2(CO3)N=C(N)C[C@@H]2C(F)(F)F)c1

- IC50 (Beta-secretase 1 [4]): 1.5 µM
Compound: CC1Cc2ccc(OC(=O)c3ccc(NC(=N)N)cc3)cc2OC1=O (stereo not drawn)

- IC50 (Beta-secretase 1 [6]): 30.3 µM
Compound: O=C1NC(=O)C2C=CNC2N1 (stereo not drawn)

- IC50 (Beta-secretase 1 [4]): 6.6 µM
Compound: O=C1CSC2(CCN(CCCN3c4ccccc4Sc4ccc(Cl)cc43)CC2)N1 [SPICLOMAZINE]
